Data reported in patent publication US20230346956A1, “COMPLEX OF 7-DEACETYLFORSKOLIN AND PVP” (SciPharm S.à.r.l, priority 2020, published 2023).
≈ marks a conversion by molar mass, not a printed value.

Columns and labels:
[1] = Determination of water solubility (excess complex in water, filtration, HPLC); type: physicochemical; conditions: content of active in filtrate by HPLC
Method: For the solubility tests, the respective complex dried by means of rotary evaporator was used. A defined amount of water is added and then complex is added until an excess of 7-DAFSK-PVP is present. The supersaturated solution is sonicated, stirred and slightly heated (water bath 40° C.). The suspension is then filtered (0.45 μm filter) and the content of 7-DAFSK in the filtrate is determined by HPLC.

[2] = tested on: adenylyl cyclase (HEK293 cells stably expressing EP2 receptor); experiment: cAMP assay, HEK293 cells with EP2 receptor; type: cell-based, human; conditions: 30 μM forskolin in DMSO, 100 μM 7-DAFSK in water or as PVP K12 complex in water, with 30 μM treprostinil, treprostinil alone = control, 30 min, room temperature
Method: (§1) A cAMP assay was performed using HEK293 cells (human embryonic kidney cells, 1970) with the prostaglandin receptors EP2 or EP4, or the prostacyclin receptor IP. HEK293 cells were incubated with FCS and a radioligand ([^3H] adenine). The formation of cAMP ([^3H] cAMP) was monitored experimentally.
(§2) Day 1: HEK293 cells stably expressing either EP2, EP4, or IP receptors were grown on a 6-well plate in 2 mL DMEM medium containing 10% FCS and 2 μCi [^3H]-adenine and incubated for 16 hours.
(§3) Day 2: Cells were stimulated with 30 μM treprostinil alone or in combination with […] forskolin in DMSO, 100 μM 7-DAFSK in water, or 100 μM 7-DAFSK in 7-DAFSK-PVP K12 complex in water (in fresh medium for 30 minutes at room temperature). Cells were then lysed with 2.5% perchloric acid (PCA) for 30 minutes on ice. The PCA extract was neutralized with KOH and [^3H]cAMP was separated by sequential chromatography using DOWEX and alumina columns. Radioactivity was then measured using a scintillator.
(§4) An aliquot of PCA extract from each well was used to measure radioactivity.

[3] = tested on: adenylyl cyclase (HEK293 cells stably expressing EP4 receptor); experiment: cAMP assay, HEK293 cells with EP4 receptor; type: cell-based, human; conditions: 30 μM forskolin in DMSO, 100 μM 7-DAFSK in water or as PVP K12 complex in water, with 30 μM treprostinil, treprostinil alone = control, 30 min, room temperature
Method: as §1, §2, §3, §4

[4] = tested on: adenylyl cyclase (HEK293 cells stably expressing IP receptor); experiment: cAMP assay, HEK293 cells with IP receptor; type: cell-based, human; conditions: 30 μM forskolin in DMSO, 100 μM 7-DAFSK in water or as PVP K12 complex in water, with 30 μM treprostinil, treprostinil alone = control, 30 min, room temperature
Method: as §1, §2, §3, §4

[5] = Amount going into solution in 6 mL H2O after the preparation procedure (0.45 μm filtration, HPLC); type: physicochemical; conditions: control sample without PVP12, heating method, 20 mg 7-DAFSK
Method: For the complexation of 7-deacetyl-forskolin with PVP K12 (“Kollidon” 12 PF, Ph. Eur., USP, JP; BASF, average molar mass: about 2.5 kD), 20 mg of 7-DAFSK and 20 mg of PVP K12 were triturated in a porcelain crucible and 300 μL of ethanol was added and stirred. After 10 min, 100 μL of H2O was added, stirred, and allowed to stand again for 10 min. The solution was then heated to 140° C. in a drying oven within 40 min and left in it for a total of 45 min. After cooling, 3 mL of H2O was added and stirring was performed for 20-30 min. Then, the suspension was taken up with a syringe and filtered through 0.45 μm filter (hydrophilic). The crucible was rewashed with 3 mL H2O and the wash solution was also filtered through the filter. The content of 7-DAFSK dissolved in the 6 mL H2O was determined by HPLC. For the determination, the 7-DAFSK-PVP complex solution was diluted 1:10 with running medium. A mass fraction of 7-DAFSK in the total complex of 35 wt % was determined.
To optimize the content of 7-DAFSK in the total complex, the weight ratios of 7-DAFSK and PVP K12 used were varied (FIG. 3). […]
20 mg FSK and 40 mg PVP 25 were triturated in a porcelain crucible and 300 μL ethanol (alternatively propanol) was added and stirred. […] The content of FSK dissolved in the 6 mL H2O was determined by HPLC. A mass fraction of FSK in the total complex of <0.01 wt % was determined.

[6] = literature/background value; cited from earlier work

SMILES | water solubility [1] | activation of adenylyl cyclase ([3H]cAMP formation) [2] | activation of adenylyl cyclase ([3H]cAMP formation) [3] | activation of adenylyl cyclase ([3H]cAMP formation) [4] | proportion of the 7-DAFSK used brought into solution [5] | solubility in water [6] | solubility ([1]; 40 °C, thermodynamic from solid)
C=C[C@@]1(C)CC(=O)[C@]2(O)[C@@]3(C)[C@@H](O)CCC(C)(C)[C@@H]3[C@H](O)[C@H](O)[C@@]2(C)O1 [7-DAFSK, 7-deacetyl-forskolin] | 1000 µg/mL (≈ 2710 µM) | enhanced activity | enhanced activity | enhanced activity | less than a quarter | up to 1 mg/mL | 
C=C[C@@]1(C)CC(=O)[C@]2(O)[C@@]3(C)[C@@H](O)CCC(C)(C)[C@@H]3[C@H](O)[C@H](OC(C)=O)[C@@]2(C)O1 [FSK, forskolin] |  |  |  |  |  | 10 µg/mL (≈ 24.4 µM) | 10 µg/mL (≈ 24.4 µM)
CCCCC[C@H](O)CC[C@@H]1[C@H]2Cc3cccc(OCC(=O)O)c3C[C@H]2C[C@H]1O [Treprostinil, treprostinil] |  | no activation of AC | no activation of AC | no activation of AC |  |  | 
